Laboratory results taken from patent publication US20230183187A1, “QUINAZOLINE COMPOUNDS AS INHIBITORS OF PREMATURE TERMINATION CODONS” (CENTRE NATIONAL DE LA RECHERCHE SCIENTIFIQUE, priority 2020, published 2023).

Assays:
[1] = system: HeLa cells; experiment: IC50 in HeLa cells; format: cell-based; conditions: Homo sapiens
[2] = system: nonsense mutation W1268X; experiment: pAC99 dual reporter readthrough in HeLa cells, W1268X; format: cell-based, human; conditions: 24 hours
Procedure: (§1) Different compounds of the invention have been tested for their ability to induce readthrough on the nonsense mutation W1268X or R213X in HeLa cells.
(§2) To this aim the inventors used the pAC99 dual reporter plasmid. This dual reporter is used to quantify stop-codon readthrough through the measurement of luciferase and beta-galactosidase (internal normalisation) activities. Readthrough levels for nonsense mutations were analysed in the presence or absence of tested molecules. Cells are seeded in a 6-well plate. The next day, cells are transfected with the reporter plasmid using the JetPei reagent (Invitrogen). The following day, they are rinsed with fresh medium, with or without readthrough inducers. Cells were harvested 24 hours later, with trypsin—EDTA (Invitrogen), lysed with Glo lysis buffer (Promega) and beta-galactosidase and luciferase activities were assayed as previously described. Readthrough efficiency was estimated by calculating the ratio of luciferase activity to beta-galactosidase activity obtained with the test construct, with normalisation against an in-frame control construct. At least five independent transfection experiments were performed for each assay.

[3] = system: nonsense mutation R213X; experiment: pAC99 dual reporter readthrough in HeLa cells, R213X; format: cell-based, human; conditions: 24 hours
Procedure: as §1, §2

[4] = system: p53 (endogenous nonsense mutation R213X) in HDQ-P1 cells; experiment: Western blot of full-length p53 in HDQ-P1 cells; format: cell-based, human; conditions: HDQ-P1, 48 h; for production of the full-length p53 (western blot): TLN68 50 μM, TLN236 30 μM, TLN309 40 μM
Procedure: HDQ-P1 cells (R213X) were treated with G418 ([…]), or the selected molecules (TLN68 50 μM, TLN1399 50 μM, TLN236 30 μM and TLN309 40 μM), for 48 h. Cells were harvested by treatment with trypsin—EDTA (Invitrogen), lysed in 350 mM NaCl, 50 mM Tris—HCl pH 7.5, 1% NP-40, and protease inhibitor cocktail (Roche) and disrupted by passage through a syringe.
Total proteins were quantified with Bradford reagent (Biorad) and extracts were denatured by incubation in Laemmli buffer for 5 minutes at 90° C. The inventors subjected 30 μg of total protein from HDQ-1 cells to SDS—PAGE in 4/10% Bis—Tris gels. Proteins were transferred onto nitrocellulose membranes, according to the manufacturer's instructions (Biorad). Membranes were saturated by overnight incubation in 5% skimmed milk powder in PBS, and incubated for 1 hour with the primary monoclonal antibody, DO-1 (N-terminal epitope mapping between amino acid residues 11 and 25 of p53; Santa Cruz Biotechnologies, 1/400) or a monoclonal antibody against mouse actin (Millipore, 1/2000). After three washes in PBS supplemented with 0.1% Tween, the membranes were incubated with the secondary antibody [horseradish peroxidase-conjugated anti-mouse IgG ( 1/2500)] for 45 minutes. The membranes were washed five times and chemiluminescence was detected with ECL Prime Western Blotting Detection Reagents (Amersham, GE Healthcare). The signal was quantified with ImageJ software.

[5] = system: TP53-R213X mRNA; experiment: RT-qPCR of mutant p53 mRNA in HDQ-P1 cells; format: cell-based, human; conditions: HDQ-P1, 48 hours; TLN68 80 μM, TLN309 40 μM; n=3
Procedure: For the analysis of mRNA levels for p53 and its transcriptional target genes, Bax, the inventors extracted total RNA from HDQ-P1 cells that had or had not been treated with G418 (400 μM) or TLN68 (80 μM) for 48 hours (RNeasy Mini Kit, Qiagen). The RNA was treated with DNAse I (RNase-free DNase) and quantified with a Nanodrop spectrometer (ThermoScientific). The absence of RNA degradation was confirmed by agarose gel electrophoresis. The first-strand cDNA was synthesized from 2 μg of total RNA, with random primers and the SuperScript II Reverse Transcriptase (Invitrogen), as recommended by the manufacturer. Quantitative PCR was then carried out on equal amounts of the various cDNAs, with a CFX96 thermocycler (Biorad), and the accumulation of products was monitored with the intercalating dye FastStart Universal SYBRGreen Master (ROX) reagent (Roche). The inventors quantified mRNA levels relative to three reference mRNAs: RPL32, Hprt1 and HMBS. In each experiment, results are expressed relative to those for untreated cells, for which the value obtained was set to 1. Relative levels of gene expression were calculated at early stages of PCR, when the amplification was exponential and might, therefore, be correlated with the initial number of copies of the transcript. […] For the quantification of each mRNA, three independent experiments (from biological replicates) were performed in triplicate. […]

[6] = system: TP53 R213X nonsense mutation; experiment: Dual reporter (lacZ/F-luc, pAC99) stop codon readthrough quantification, R213X, NIH3T3 cells; format: cell-based, mouse; conditions: 24 h, each drug separately or together
Description: Complementary oligonucleotides corresponding to TP53 R213X nonsense mutations and 9 nucleotides on both sides are ligated into the pAC99 dual reporter plasmid, as previously described (Premature stop codons involved in muscular dystrophies show a broad spectrum of readthrough efficiencies in response to gentamicin treatment, Bidou et al, Gene Therapy 1 Apr. 2004, 11(7):619-627). This dual reporter is used to quantify stop-codon readthrough through the measurement of luciferase and beta-galactosidase (internal calibration) activities, as previously described (Stahl et al, Versatile vectors to study recoding: conservation of rules between yeast and mammalian cells. Nucleic Acids Res 1995; 23:1557-60). Readthrough levels for nonsense mutations were analysed in the presence or absence of tested molecules. Cells were seeded in a 6-well plate. The next day, cells are transfected with the reporter plasmid in the presence of JetPei reagent (Invitrogen). The following day, they are rinsed with fresh medium, with or without readthrough inducers. […] Readthrough efficiency was estimated by calculating the ratio of luciferase activity to beta-galactosidase activity obtained with the test construct, with normalisation against an in-frame control construct. […]

[7] = system: TP53 nonsense mutation R213X; experiment: Secreted Metridia luciferase R213X reporter in stable NIH3T3 cell line (HTS); format: cell-based, mouse; conditions: gentamicin 1.6 mM 24 hours, 7 clones, library molecules 50 μM
Procedure: All cells were cultured in DMEM plus GlutaMAX (Invitrogen), except for H1299 cells, which were cultured in RPMI plus GlutaMAX (Invitrogen). The medium was supplemented with 10% foetal calf serum (FCS, Invitrogen) and 100 U/ml penicillin/streptomycin. Cells were kept in a humidified atmosphere containing 5.5% CO2, at 37° C. NIH3T3 cells are embryonic mouse fibroblasts. H1299 is a p53-null cell line established from a human lung carcinoma (provided by the ATCC). HDQ-P1 is homozygous for a nonsense mutation at codon 213 (CGA to TGA) in the p53 gene. This cell line was established from a human primary breast carcinoma and was provided by DSMZ-German collection of microorganisms and cell cultures. In order to generate a stable mammalian cell line the inventors used a secreted Metridia luciferase reporter gene derived from pMetLuc2 (Clonetech). […] Seven neomycin resistant clones were tested for their capacity to express active metridiae after readthrough induction in the presence of 1.6 mM gentamicin during 24 hours. Then 50 μL of culture medium was taken from each well and incubated in the presence of substrate: coelenterazine, according to the conditions recommended by the supplier (Ready-To-Glow Secreted Luciferase Reporter Assay (Clonetech)). The photon emission generated by the reaction was measured in a plate luminometer (Tecan). […]

[8] = system: dystrophin; conditions: skeletal muscle of mdx mice, subcutaneous injections (Barton-Davis et al, 1999); cited from earlier work

Molecule	IC50 [1]	Inducting factor of readthrough as compared to untreated cells (measured on nonsense mutation W1268X) [2]	Inducting factor of readthrough as compared to untreated cells (measured on nonsense mutation R213X) [3]	further results
Cc1nc(NC(=N)N)nc2cc(F)ccc12 [EC-11]	40 µM	11		
COc1ccc2c(C)nc(NC(=N)N)nc2c1 [EC-18, 1-(7-methoxy-4-methylquinazolin-2-yl)guanidine]	60 µM	69	50	
COc1cccc2c(C)nc(NC(=N)N)nc12 [EC-30]	80 µM	10		
Cc1nc(NC(=N)N)nc2c(C)cccc12 [EC-35, 1-(4,8-dimethylquinazolin-2-yl)guanidine]	20 µM	11	14	
Cc1nc(NC(=N)N)nc2cc(Br)ccc12 [EC-85]	20 µM	15	16	
Cc1nc(NC(=N)N)nc2c(C)c(Br)ccc12 [EC-130, 1-(7-bromo-4,8-dimethylquinazolin-2-yl)guanidine]	10 µM	21	33	
Cc1nc(NC(=N)N)nc2cc(Cl)ccc12 [EC-141]	40 µM	16		
CCc1nc(NC(=N)N)nc2cc(OC)ccc12 [EC-265]	60 µM	19	40	
Cc1nc(NC(=N)N)nc2c(C)c(F)ccc12 [EC-288, 1-(7-fluoro-4,8-dimethylquinazolin-2-yl)guanidine]	20 µM	68	55	
Cc1nc(NC(=N)N)nc2c(C)c(Cl)ccc12 [EC-335, 1-(7-chloro-4,8-dimethylquinazolin-2-yl)guanidine]	10 µM	33	38	
COc1cc(C(=O)OCCCN2CCCN(CCCOC(=O)c3cc(OC)c(OC)c(OC)c3)CC2)cc(OC)c1OC.Cl.Cl [TLN236]				production of the full-length p53 (western blot) [4]: no protein is revealed
CCN(CC)Cc1cc(Nc2ccnc3cc(Cl)ccc23)ccc1O [TLN309, Amodiaquine]				level of induction of full-length p53 compared with G418 ([4]; G418 10 and 20 mM): even higher to the one obtained in presence of G418; production of the full-length p53 (western blot) [4]: stimulate the production of the full-length p53; stabilisation of TP53-R213X mRNA relative to untreated [5]: marginal stabilisation
gentamicin				readthrough level [6]: 10%; induction of Metridia luciferase activity [7]: significant induction; restoration of dystrophin levels relative to wild-type animals [8]: 10-20%
